ChEMBL document CHEMBL1201862, “PubChem BioAssay data set” (2004)
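Grown in 96-well plates, cells were treated for 48 hours with each compound at five concentrations. Insufficient inhibition: endpoint recorded as highest concentration tested. Abbreviation: GI50, concentration required for 50% inhibition of growth.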 Calls of active or inactive are those of the source. Cut-off read from the data, not from the text of the source: active = GI50 up to about 1.1 µM and inactive = higher.

Assays:
Assay in all cases: NCI-60 cell line screen, 48 h
NCI/ADR-RES = tested on: NCI/ADR-RES
NCI-H460 = tested on: NCI-H460
M14 = tested on: M14
COLO 205 = tested on: COLO 205
SK-MEL-5 = tested on: SK-MEL-5
SNB-19 = tested on: SNB-19
RPMI-8226 = tested on: RPMI-8226
OVCAR-5 = tested on: OVCAR-5
SK-MEL-28 = tested on: SK-MEL-28
K562 = tested on: K562
NCI-H522 = tested on: NCI-H522
DU-145 = tested on: DU-145
T47D = tested on: T47D
MDA-MB-231 = tested on: MDA-MB-231
Hs-578T = tested on: Hs-578T
HCT-15 = tested on: HCT-15
786-0 = tested on: 786-0
HCT-116 = tested on: HCT-116
SF-539 = tested on: SF-539
Malme-3M = tested on: Malme-3M

SMILES	GI50 (NCI/ADR-RES)	GI50 (NCI-H460)	GI50 (M14)	GI50 (COLO 205)	GI50 (SK-MEL-5)	GI50 (SNB-19)	GI50 (RPMI-8226)	GI50 (OVCAR-5)	GI50 (SK-MEL-28)	GI50 (K562)	GI50 (NCI-H522)	GI50 (DU-145)	GI50 (T47D)	GI50 (MDA-MB-231)	GI50 (Hs-578T)	GI50 (HCT-15) [µM]	GI50 (786-0)	GI50 (HCT-116)	GI50 (SF-539)	GI50 (Malme-3M)
COc1cc(NS(C)(=O)=O)ccc1Nc1cc(C)nc2ccc3[nH]ccc3c12	> 100 µM (inactive)	> 100 µM (inactive)	> 100 µM (inactive)	> 100 µM (inactive)	> 100 µM (inactive)	> 100 µM (inactive)	> 100 µM (inactive)	> 100 µM (inactive)	> 100 µM (inactive)	> 100 µM (inactive)	8.69 µM (inactive)	> 100 µM (inactive)	> 100 µM (inactive)	> 100 µM (inactive)	> 100 µM (inactive)	> 100	> 100 µM (inactive)	> 100 µM (inactive)	–	–
C=C1C(O)C2(O)OCC34C(CC5C(C)=CC(=O)C(O)C5(C)C23)OC(=O)C(OC(=O)C/C=C(\C)CCCCC)C14 (configuration not stated)	0.624 µM (active)	0.0125 µM (active)	< 0.001 µM (active)	0.0154 µM (active)	–	0.0146 µM (active)	0.014 µM (active)	0.0231 µM (active)	0.0128 µM (active)	0.0125 µM (active)	0.0125 µM (active)	< 0.001 µM (active)	< 0.001 µM (active)	0.00315 µM (active)	< 0.001 µM (active)	0.0316	0.00103 µM (active)	0.0125 µM (active)	0.0153 µM (active)	–
O=C(c1ccccc1)C1N=NCC1c1ccc([N+](=O)[O-])cc1 (configuration not stated)	39.3 µM (inactive)	38.1 µM (inactive)	48.9 µM (inactive)	39.4 µM (inactive)	26.1 µM (inactive)	54.8 µM (inactive)	29.9 µM (inactive)	> 100 µM (inactive)	61.5 µM (inactive)	32.5 µM (inactive)	–	18.4 µM (inactive)	3.91 µM (inactive)	> 100 µM (inactive)	34.8 µM (inactive)	45.8	> 100 µM (inactive)	51.8 µM (inactive)	58.3 µM (inactive)	51.4 µM (inactive)
COc1cc(-c2nc(N)c(C#N)c3c2CCS(=O)(=O)c2ccc(C)cc2-3)cc(OC)c1OC	12.6 µM (inactive)	> 100 µM (inactive)	> 100 µM (inactive)	> 100 µM (inactive)	> 100 µM (inactive)	7.05 µM (inactive)	> 100 µM (inactive)	> 100 µM (inactive)	> 100 µM (inactive)	> 100 µM (inactive)	> 100 µM (inactive)	> 100 µM (inactive)	98.2 µM (inactive)	17.3 µM (inactive)	33.8 µM (inactive)	> 100	19.1 µM (inactive)	> 100 µM (inactive)	–	17.5 µM (inactive)
Nc1nc(N)c2cc(CNc3ccc(C(=O)NC(CC(=O)O)C(=O)O)c(Cl)c3)ccc2n1 (configuration not stated)	< 0.0282 µM (active)	0.0256 µM (active)	0.0743 µM (active)	0.861 µM (active)	0.162 µM (active)	0.248 µM (active)	–	0.191 µM (active)	0.288 µM (active)	< 0.0192 µM (active)	0.502 µM (active)	0.0501 µM (active)	0.524 µM (active)	337 µM (inactive)	357 µM (inactive)	0.0203	0.0736 µM (active)	< 0.01 µM (active)	0.313 µM (active)	0.383 µM (active)
COc1cc2c(cc1OCCCCOc1cc3nc(C)nc(Cl)c3cc1OC)N=C[C@@H]1CCCN1C2=O	2.27 µM (inactive)	3.4 µM (inactive)	1.88 µM (inactive)	19.1 µM (inactive)	1.77 µM (inactive)	17.4 µM (inactive)	–	2 µM (inactive)	2.34 µM (inactive)	2.07 µM (inactive)	0.637 µM (active)	3.22 µM (inactive)	15.3 µM (inactive)	1.25 µM (inactive)	1.99 µM (inactive)	1.43	3.12 µM (inactive)	2.21 µM (inactive)	2.04 µM (inactive)	1.79 µM (inactive)
